Measured values as given in ChEMBL document CHEMBL3576828, “Acredinones A and B, voltage-dependent potassium channel inhibitors from the sponge-derived fungus Acremonium sp. F9A015” (J Nat Prod, 2015).
Activity calls are given as the source filed them. No cut-off for these calls is given here.

Experiments:
[1] = target: T1, Potassium voltage-gated channel subfamily B member 1 (Homo sapiens) (UniProt Q14721); test: (§1) Inhibition of Kv2.1 channel in […] INS1 cells assessed as inhibition of outward K+ current by electrophysiology/patch clamp technique; assay type: cell-based
T1 sequence (whole entry): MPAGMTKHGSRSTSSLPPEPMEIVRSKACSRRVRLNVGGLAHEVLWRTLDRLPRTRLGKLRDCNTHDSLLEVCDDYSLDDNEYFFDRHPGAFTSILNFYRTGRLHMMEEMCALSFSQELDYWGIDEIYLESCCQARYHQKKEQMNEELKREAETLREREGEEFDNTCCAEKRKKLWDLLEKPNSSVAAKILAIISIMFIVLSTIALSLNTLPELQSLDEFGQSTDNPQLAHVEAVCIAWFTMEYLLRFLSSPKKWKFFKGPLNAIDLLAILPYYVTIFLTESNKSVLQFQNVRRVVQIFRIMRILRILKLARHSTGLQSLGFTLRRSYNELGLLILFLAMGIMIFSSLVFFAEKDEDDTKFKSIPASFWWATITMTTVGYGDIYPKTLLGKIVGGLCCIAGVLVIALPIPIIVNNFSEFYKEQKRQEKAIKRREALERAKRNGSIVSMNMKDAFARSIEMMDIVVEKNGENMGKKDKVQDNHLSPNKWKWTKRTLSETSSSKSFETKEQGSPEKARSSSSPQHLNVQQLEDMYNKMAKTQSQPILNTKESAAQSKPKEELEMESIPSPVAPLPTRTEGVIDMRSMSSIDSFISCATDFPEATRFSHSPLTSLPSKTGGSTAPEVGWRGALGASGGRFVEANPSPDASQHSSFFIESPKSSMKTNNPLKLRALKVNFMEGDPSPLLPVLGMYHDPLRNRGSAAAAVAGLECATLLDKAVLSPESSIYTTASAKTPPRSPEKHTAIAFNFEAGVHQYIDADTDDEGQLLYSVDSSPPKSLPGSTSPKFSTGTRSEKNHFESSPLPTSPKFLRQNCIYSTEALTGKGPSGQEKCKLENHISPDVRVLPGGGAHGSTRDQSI

[2] = target: T2, Potassium voltage-gated channel subfamily B member 1 (Homo sapiens, UniProt Q14721); test: as §1; assay type: cell-based
T2 sequence (Q14721 whole entry): T1 sequence (whole entry)

inhibition [1]	IC50 [2] [nM]	SMILES
inactive		COc1cccc(OC)c1C(=O)c1c(O)cc(C)c(OC)c1COC(C)=O
	1000	COc1cccc(OC)c1C(=O)c1c(O)cc(C)c(OC)c1CC(=O)c1c(OC)c(C)cc(O)c1C(=O)c1c(OC)cccc1OC
	590	COc1cccc(OC)c1C(=O)c1c(O)cc(C)c(OC)c1C1=C(c2c(OC)cccc2OC)c2c(O)cc(C)c(OC)c2C1=O
